{"source": "patent US20250281507A1", "about": "“METHODS OF TREATING NEPHROTIC SYNDROME” (The Research Institute at Nationwide Children's Hospital, priority 2021, published 2025)", "key": {"children with NS [1]": {"system": "children with NS", "assay": "Total Immunosuppression Score (TIS) before and after addition of pioglitazone", "format": "in vivo, human", "design": "% TIS reduction (0-1 mo) / % TIS reduction (5-7 mo) / % TIS reduction (0-1 mo), Mean (SEM) / % TIS reduction (5-7 mo), Mean (SEM): concentration or dose not given beside the values", "protocol": "The reduction in overall immunosuppression can be quantified by comparing the “Total Immunosuppression Score” (TIS) prior to and after the addition of a TZD to the drug regimen (see FIG. 3 herein). The TIS is based on a combination of the number of immunosuppressive drugs being administered and the dose at which each drug is administered. The score for each drug is on a scale of 0 to 4, where: 0=no drug administered; 1=drug administered up to less than 25% of the standardized full dose; 2=drug administered between 25% and less than 50% of the standardized full dose; 3=drug administered between 50% and less than 75% of the standardized full dose; 4=drug administered between 75% and 100% of the standardized full dose. As an example, if five different immunosuppressive medicaments are co-administered to a subject each at their standardized full dose, the TIS=20.\nFor each patient, a Total Immunosuppression Score (TIS) (see Table 3) was calculated to quantitate overall immunosuppression. For each class of immunosuppressive drug administered during a given time period, a score of 0-4 was assigned based on the percentage of a full dose for each patient's body size (0=0%; 1=<25%; 2=≥25-<50%; 3=≥50-<75%: 4=≥75%).\nQuantitative data, such as patient age, duration of NS, pioglitazone dosage, and outcomes of UPCR, TIS, and serum albumin, were summarized as means (standard errors of mean), while categorical data such as renal survival status were summarized as frequency (percent). Due to a small sample size, Responders and Non-responders were compared using Wilcoxon Rank Sum tests on quantitative variables and Fisher's exact tests on categorical variables. For both Responders and Non-responders, pre-pioglitazone to post-pioglitazone initiation changes in UPCR, TIS, and serum albumin levels were analyzed using Wilcoxon Signed Rank tests. Numbers of hospitalizations pre-pioglitazone and post-pioglitazone initiation were analyzed and compared using Poisson distributions. Statistical significance was assessed at both the 0.05 and 0.10 levels. All analyses were conducted using SPSS software ver. 26 (IBM, Armonk, NY, USA)."}, "children with NS [2]": {"system": "children with NS", "assay": "Renal survival, renal function, remission and prednisone taper on pioglitazone", "format": "in vivo, human", "description": "In the following clinical studies, the efficacy and safety of adding pioglitazone to reduce proteinuria in children with NS was examined. All children with NS identified worldwide to have been treated with pioglitazone were included, with no patients excluded. Each patient had pioglitazone added to their other NS medications at the discretion of their treating pediatric nephrologist. All patient records were reviewed in a de-identified manner, with prior ethics committee approval at each institution. Data were analyzed based on defined time periods before and after the addition of pioglitazone. Patients were defined as having responded to pioglitazone (i.e., Responders) if their urine protein to creatinine ratio (UPCR, mg/mg) decreased from the period 0-1 month pre-pioglitazone to the period 0-1 month post-pioglitazone. Glomerular filtration rate estimation (eGFR) in patients <18 years was calculated using the revised Schwartz equation. In patients >18 years, eGFR was calculated as the mean of the revised Schwartz and CKD-EPI creatinine equations. Quantitative data, such as patient age, duration of NS, pioglitazone dosage, and outcomes of UPCR, TIS, and serum albumin, were summarized as means (standard errors of mean), while categorical data such as renal survival status were summarized as frequency (percent). Due to a small sample size, Responders and Non-responders were compared using Wilcoxon Rank Sum tests on quantitative variables and Fisher's exact tests on categorical variables. For both Responders and Non-responders, pre-pioglitazone to post-pioglitazone initiation changes in UPCR, TIS, and serum albumin levels were analyzed using Wilcoxon Signed Rank tests. Numbers of hospitalizations pre-pioglitazone and post-pioglitazone initiation were analyzed and compared using Poisson distributions. Statistical significance was assessed at both the 0.05 and 0.10 levels. All analyses were conducted using SPSS software ver. 26 (IBM, Armonk, NY, USA)."}, "[3]": {"conditions": "Patient 1 (Responder), pre-PIO 13"}, "[4]": {"conditions": "Patient 1 (Responder), vs 0-1 mo pre-PIO"}, "[5]": {"conditions": "Patient 2 (Responder), pre-PIO 12"}, "[6]": {"conditions": "Patient 2 (Responder), vs 0-1 mo pre-PIO"}, "[7]": {"conditions": "Patient 3 (Responder), pre-PIO 0"}, "[8]": {"conditions": "Patient 3 (Responder), vs 0-1 mo pre-PIO (TIS 0)"}, "[9]": {"conditions": "Patient 5 (Non-responder), pre-PIO 4"}, "[10]": {"conditions": "Patient 5 (Non-responder), vs 0-1 mo pre-PIO"}, "[11]": {"conditions": "Patient 6 (Responder), pre-PIO 2"}, "[12]": {"conditions": "Patient 7 (Non-responder), pre-PIO 3"}, "[13]": {"conditions": "Patient 7 (Non-responder), vs 0-1 mo pre-PIO"}, "[14]": {"conditions": "Patient 8 (Responder), pre-PIO 4"}, "[15]": {"conditions": "Patient 8 (Responder), vs 0-1 mo pre-PIO"}, "[16]": {"conditions": "mean of 5 Responders, pre-PIO 6.20"}}, "note": "Several values for one entry are separate records, joined by “and”; a condition that tells them apart may be missing. Equal entries are not always repeated."}
{"compound": "CCc1ccc(CCOc2ccc(CC3SC(=O)NC3=O)cc2)nc1", "note": "(centres unmarked) [pioglitazone]", "values": [{"measurement": "mean TIS", "setting": "children with NS [1]; Non-responders, before and after pioglitazone treatment", "result": "approximately 3.5"}, {"measurement": "Post-PIO TIS (0-1 mo)", "setting": "children with NS [1]; [3]", "result": 11}, {"measurement": "Post-PIO TIS (5-7 mo)", "setting": "children with NS [1]; [3]", "result": 5}, {"measurement": "% TIS reduction (0-1 mo)", "setting": "children with NS [1]; [4]", "result": "15% and 15.4%"}, {"measurement": "% TIS reduction (5-7 mo)", "setting": "children with NS [1]; [4]", "result": "62% and 61.5%"}, {"measurement": "Post-PIO TIS (0-1 mo)", "setting": "children with NS [1]; [5]", "result": 12}, {"measurement": "Post-PIO TIS (5-7 mo)", "setting": "children with NS [1]; [5]", "result": 8}, {"measurement": "% TIS reduction (0-1 mo)", "setting": "children with NS [1]; [6]", "result": 0, "unit": "%"}, {"measurement": "% TIS reduction (5-7 mo)", "setting": "children with NS [1]; [6]", "result": "33% and 33.3%"}, {"measurement": "Post-PIO TIS (0-1 mo)", "setting": "children with NS [1]; [7]", "result": 2}, {"measurement": "Post-PIO TIS (5-7 mo)", "setting": "children with NS [1]; [7]", "result": 1}, {"measurement": "% TIS reduction (0-1 mo)", "setting": "children with NS [1]; [8]", "result": "−∞"}, {"measurement": "% TIS reduction (5-7 mo)", "setting": "children with NS [1]; [8]", "result": "−∞"}, {"measurement": "TIS increase", "setting": "children with NS [1]; Patient 4 (Non-responder), over the next 1 month", "result": 133, "unit": "%"}, {"measurement": "Post-PIO TIS (0-1 mo)", "setting": "children with NS [1]; Patient 4 (Non-responder), pre-PIO 3", "result": 7}, {"measurement": "% TIS reduction (0-1 mo)", "setting": "children with NS [1]; Patient 4 (Non-responder), vs 0-1 mo pre-PIO", "result": "−133", "unit": "%"}, {"measurement": "Post-PIO TIS (0-1 mo)", "setting": "children with NS [1]; [9]", "result": 4}, {"measurement": "Post-PIO TIS (5-7 mo)", "setting": "children with NS [1]; [9]", "result": 4}, {"measurement": "% TIS reduction (0-1 mo)", "setting": "children with NS [1]; [10]", "result": 0.00, "unit": "%"}, {"measurement": "% TIS reduction (5-7 mo)", "setting": "children with NS [1]; [10]", "result": 0.00, "unit": "%"}, {"measurement": "Post-PIO TIS (0-1 mo)", "setting": "children with NS [1]; [11]", "result": 2}, {"measurement": "Post-PIO TIS (5-7 mo)", "setting": "children with NS [1]; [11]", "result": 2}, {"measurement": "% TIS reduction (5-7 mo)", "setting": "children with NS [1]; Patient 6 (Responder), vs 0-1 mo pre-PIO", "result": 0.00, "unit": "%"}, {"measurement": "Post-PIO TIS (0-1 mo)", "setting": "children with NS [1]; [12]", "result": 3}, {"measurement": "Post-PIO TIS (5-7 mo)", "setting": "children with NS [1]; [12]", "result": 3}, {"measurement": "% TIS reduction (0-1 mo)", "setting": "children with NS [1]; [13]", "result": 0.00, "unit": "%"}, {"measurement": "% TIS reduction (5-7 mo)", "setting": "children with NS [1]; [13]", "result": 0.00, "unit": "%"}, {"measurement": "Post-PIO TIS (0-1 mo)", "setting": "children with NS [1]; [14]", "result": 3}, {"measurement": "Post-PIO TIS (5-7 mo)", "setting": "children with NS [1]; [14]", "result": 2}, {"measurement": "% TIS reduction (0-1 mo)", "setting": "children with NS [1]; [15]", "result": 25, "unit": "%"}, {"measurement": "% TIS reduction (5-7 mo)", "setting": "children with NS [1]; [15]", "result": 50, "unit": "%"}, {"measurement": "decrease in overall exposure to immunosuppressive medications (mean TIS)", "setting": "children with NS [1]; Responders, mean TIS 6.2 at 0-1 month pre- to 3.6 at 5-7 months post-pioglitazone", "result": 42, "unit": "%"}, {"measurement": "% TIS reduction (0-1 mo), Mean (SEM)", "setting": "children with NS [1]; mean of 5 Responders", "result": "−∞"}, {"measurement": "% TIS reduction (5-7 mo), Mean (SEM)", "setting": "children with NS [1]; mean of 5 Responders", "result": "−∞"}, {"measurement": "Post-PIO TIS (0-1 mo), Mean (SEM)", "setting": "children with NS [1]; [16]", "result": 6.00}, {"measurement": "Post-PIO TIS (5-7 mo), Mean (SEM)", "setting": "children with NS [1]; [16]", "result": 3.6}, {"measurement": "% TIS reduction (0-1 mo), Mean (SEM)", "setting": "children with NS [1]; mean of Non-responders", "result": "−44.4", "unit": "%"}, {"measurement": "Post-PIO TIS (5-7 mo), Mean (SEM)", "setting": "children with NS [1]; mean of Non-responders (Patient 4 ESRD)", "result": 3.50}, {"measurement": "% TIS reduction (5-7 mo), Mean (SEM)", "setting": "children with NS [1]; mean of Non-responders (Patient 4 NA)", "result": 0.00, "unit": "%"}, {"measurement": "Post-PIO TIS (0-1 mo), Mean (SEM)", "setting": "children with NS [1]; mean of Non-responders, pre-PIO 3.33", "result": 4.67}, {"measurement": "Renal Survival, % survival", "setting": "children with NS [2]; 3 Non-responders", "result": 33.3, "unit": "%"}, {"measurement": "Renal Survival, % survival", "setting": "children with NS [2]; 5 Responders", "result": 100, "unit": "%"}, {"measurement": "Renal Survival", "setting": "children with NS [2]; Patient 1 (Responder)", "result": "yes"}, {"measurement": "renal function", "setting": "children with NS [2]; Patient 1, during pioglitazone treatment", "result": "maintained normal renal function"}, {"measurement": "Renal Survival", "setting": "children with NS [2]; Patient 2 (Responder)", "result": "yes"}, {"measurement": "renal function", "setting": "children with NS [2]; Patient 2, during pioglitazone treatment", "result": "maintained normal renal function"}, {"measurement": "PRED dose after taper", "setting": "children with NS [2]; Patient 2, orally QD, from 30 mg/d", "result": 5, "unit": "mg"}, {"measurement": "remission", "setting": "children with NS [2]; Patient 2, pioglitazone 15 mg orally QD for 16 weeks", "result": "achieved full remission"}, {"measurement": "Renal Survival", "setting": "children with NS [2]; Patient 3 (Responder)", "result": "yes"}, {"measurement": "Prednisone dose after decrease", "setting": "children with NS [2]; Patient 3, from 40 mg/d", "result": 20, "unit": "mg/day"}, {"measurement": "Renal Survival", "setting": "children with NS [2]; Patient 4 (Non-responder), cFSGS, AKI at presentation", "result": "no"}, {"measurement": "renal function", "setting": "children with NS [2]; Patient 4, during pioglitazone treatment", "result": "renal function continued to worsen"}, {"measurement": "Renal Survival", "setting": "children with NS [2]; Patient 5 (Non-responder)", "result": "yes"}, {"measurement": "NS relapses", "setting": "children with NS [2]; Patient 5, on pioglitazone for 2.5 years", "result": "continued to have NS relapses"}, {"measurement": "Renal Survival", "setting": "children with NS [2]; Patient 6 (Responder)", "result": "yes"}, {"measurement": "serum creatinine", "setting": "children with NS [2]; Patient 6, on MMF and pioglitazone", "result": 0.90, "unit": "mg/dL"}, {"measurement": "Renal Survival", "setting": "children with NS [2]; Patient 7 (Non-responder)", "result": "no"}, {"measurement": "renal function", "setting": "children with NS [2]; Patient 7, pre-pioglitazone eGFR 44 ml/min/1.73 m^2", "result": "remained stable during the 6 months of pioglitazone treatment"}, {"measurement": "Renal Survival", "setting": "children with NS [2]; Patient 8 (Responder)", "result": "yes"}, {"measurement": "renal function", "setting": "children with NS [2]; Patient 8, during pioglitazone treatment", "result": "renal function remained normal"}, {"measurement": "remission", "setting": "children with NS [2]; Patient 8, following 5-7 months", "result": "remained in complete remission"}, {"measurement": "PRED dose after taper", "setting": "children with NS [2]; Patient 8, from 25 mg/d", "result": 10, "unit": "mg/day"}]}
